Assay results taken from ChEMBL document CHEMBL1201862, “PubChem BioAssay data set” (2004).
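Grown in 96-well plates, cells were treated for 48 hours with each compound at five concentrations. Insufficient inhibition: endpoint recorded as highest concentration tested. At the GI50, growth is halved.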 Calls of active or inactive are those of the source. Rule as the data show it: active = GI50 up to about 1.1 µM and inactive = higher.

How the values were obtained:
Assay in all cases: growth of human tumour cells (NCI), 48 h
DMS-114 = system: DMS-114
DMS-273 = system: DMS-273
KM-20L2 = system: KM-20L2
LXFL 529 = system: LXFL 529
M19-MEL = system: M19-MEL
RXF 631 = system: RXF 631
XF498 = system: XF498
HOP-18 = system: HOP-18
SNB-78 = system: SNB-78

Structure (SMILES) | GI50 (DMS-114) | GI50 (DMS-273) | GI50 (KM-20L2) | GI50 (LXFL 529) | GI50 (M19-MEL) | GI50 (RXF 631) | GI50 (XF498) | GI50 (HOP-18) | GI50 (SNB-78)
CCOC(=O)C(C)(C)Oc1ccc(/C=C/C(=O)c2ccc(Cl)cc2)cc1 | 17.4 µM (inactive) | 16.7 µM (inactive) | 17.8 µM (inactive) | 15.8 µM (inactive) | 20 µM (inactive) | 19.5 µM (inactive) | 18.8 µM (inactive) |  | 
CSc1cccc(-n2c3nc(=O)n(C)c(=O)c-3nc3ccccc32)c1 | 3.27 µM (inactive) | 1.66 µM (inactive) | 3.54 µM (inactive) | 13.3 µM (inactive) | 2.07 µM (inactive) |  | 3.51 µM (inactive) | 13.2 µM (inactive) | 19.4 µM (inactive)
Cc1ccc(S(=O)(=O)N/N=C(\c2nc3ccc(Cl)cc3[nH]c2=O)C(O)c2ccco2)cc1 (configuration not stated) | 22.3 µM (inactive) | > 100 µM (inactive) | > 100 µM (inactive) | > 100 µM (inactive) | > 100 µM (inactive) |  |  | > 100 µM (inactive) | 
CC#CCC1CCC(OCC)=CC1=O (configuration not stated) | > 100 µM (inactive) | > 100 µM (inactive) | > 100 µM (inactive) | > 100 µM (inactive) | > 100 µM (inactive) | > 100 µM (inactive) | > 100 µM (inactive) | > 100 µM (inactive) | > 100 µM (inactive)
O=C(CCC/C(CC(=O)c1ccc(Br)cc1)=N\O)Nc1ccccc1 | 25.5 µM (inactive) |  | 91.4 µM (inactive) | > 100 µM (inactive) | > 100 µM (inactive) |  | > 100 µM (inactive) | > 100 µM (inactive) | > 100 µM (inactive)
COc1ccc(S(=O)(=O)N/N=C/C(=O)O)cc1 | 490 µM (inactive) | 518 µM (inactive) | > 1190 µM (inactive) |  | 955 µM (inactive) |  | 8.09 µM (inactive) | > 1060 µM (inactive) | 830 µM (inactive)
O=[N+]([O-])c1cccc(-c2oc(/C=N/c3ccccc3)c([N+](=O)[O-])c2-c2cccc([N+](=O)[O-])c2)c1 | > 100 µM (inactive) | > 100 µM (inactive) | > 100 µM (inactive) | > 100 µM (inactive) | > 100 µM (inactive) | > 100 µM (inactive) |  |  | > 100 µM (inactive)
OC1OC2COC(c3ccccc3)OC2C(O)C1O (configuration not stated) | > 100 µM (inactive) | > 100 µM (inactive) | > 100 µM (inactive) | > 100 µM (inactive) | > 100 µM (inactive) |  | > 100 µM (inactive) | > 100 µM (inactive) | > 100 µM (inactive)
CC(C)=CCCC1(C)C=Cc2c(c(C)cc3c2[nH]c2cc(O)ccc23)O1 (configuration not stated) | > 25 µM (inactive) | > 25 µM (inactive) | > 25 µM (inactive) | > 25 µM (inactive) | > 25 µM (inactive) |  | > 25 µM (inactive) | 7.36 µM (inactive) | 
N#CC(NNC(=O)c1ccccc1O)c1ccccc1O (configuration not stated) |  | 2.38 µM (inactive) | 32.8 µM (inactive) | 18.6 µM (inactive) | 4.45 µM (inactive) |  |  | 4.65 µM (inactive) | 38.3 µM (inactive)
CC1=C(C(=O)NCc2ccccc2)C(c2ccccc2[N+](=O)[O-])C(C(=O)NCc2ccccc2)=C(C)N1 | 12 µM (inactive) | 10.6 µM (inactive) | 16.5 µM (inactive) | 10.7 µM (inactive) | 11.4 µM (inactive) | 15.4 µM (inactive) | 18 µM (inactive) | 20.3 µM (inactive) | 11.8 µM (inactive)
CC(C)(C)c1ccc2c(c1)S(=O)(=O)Nc1cccc(c1)NS(=O)(=O)c1cc(C(C)(C)C)ccc1OCCOCCO2 | > 100 µM (inactive) | > 100 µM (inactive) |  |  | > 100 µM (inactive) | > 100 µM (inactive) |  | > 100 µM (inactive) | > 100 µM (inactive)
O=C(/C=C/c1ccccc1O)C(c1ccccc1)c1ccccc1 | 63.2 µM (inactive) | > 100 µM (inactive) | > 100 µM (inactive) | > 100 µM (inactive) | > 100 µM (inactive) | > 100 µM (inactive) | > 100 µM (inactive) | > 100 µM (inactive) | > 100 µM (inactive)
Cc1cn(C2CC(O)C(COC(=O)c3ccccc3)O2)c(=O)[nH]c1=O (configuration not stated) |  | > 100 µM (inactive) | > 100 µM (inactive) | > 100 µM (inactive) | > 100 µM (inactive) | > 100 µM (inactive) | > 100 µM (inactive) | > 100 µM (inactive) | > 100 µM (inactive)
CCOc1ccccc1NC(=O)CCC(=O)NN |  | > 100 µM (inactive) | > 100 µM (inactive) | > 100 µM (inactive) |  | > 100 µM (inactive) | > 100 µM (inactive) |  | > 100 µM (inactive)
Cn1c(=O)c2nc3sc4ccccc4c(=N)n3c2n(C)c1=O | > 100 µM (inactive) | > 100 µM (inactive) |  | > 100 µM (inactive) | > 100 µM (inactive) | > 100 µM (inactive) | > 100 µM (inactive) | > 100 µM (inactive) | > 100 µM (inactive)
C[N+]1(C)C/C(=C/c2ccc(F)cc2)C(=O)/C(=C\c2ccc(F)cc2)C1 | 22.8 µM (inactive) | 30.6 µM (inactive) | > 100 µM (inactive) | 38.9 µM (inactive) | 36.1 µM (inactive) | > 100 µM (inactive) |  | > 100 µM (inactive) | > 100 µM (inactive)
COc1ccc2c3ccc4c(c3n(C)c2c1)C(=O)C=CC4=O |  | 34.7 µM (inactive) | > 100 µM (inactive) | 15.2 µM (inactive) | 18.3 µM (inactive) |  | 24.4 µM (inactive) | 36.7 µM (inactive) | 69.2 µM (inactive)
c1ccc2c(c1)C1=NCCN1c1ccccc1-2 |  | 1.74 µM (inactive) | 2.92 µM (inactive) | 3.06 µM (inactive) | 3.44 µM (inactive) | 2.77 µM (inactive) |  | 2.59 µM (inactive) | 4 µM (inactive)
COc1cc(C2c3cc4c(cc3[C@@H](Nc3ccc(C#N)cc3)C3COC(=O)[C@H]23)OCO4)cc(OC)c1O (some centres not stated) | 0.977 µM (active) |  | 2.33 µM (inactive) |  |  |  | 3.2 µM (inactive) | 1.16 µM (inactive) | 3.03 µM (inactive)
Cc1ccc([S+]([O-])c2ccccc2[N+](=O)[O-])cc1 (configuration not stated) | 36.5 µM (inactive) | 62.2 µM (inactive) |  |  | 10 µM (inactive) | 35 µM (inactive) |  |  | > 100 µM (inactive)
O=P1(O)c2ccccc2Nc2cc(C(F)(F)F)ccc21 | > 100 µM (inactive) | > 100 µM (inactive) | > 100 µM (inactive) | > 100 µM (inactive) | > 100 µM (inactive) |  | > 100 µM (inactive) | > 100 µM (inactive) | > 100 µM (inactive)
Ic1ncnc2c1ncn2C1CCCO1 (configuration not stated) | > 100 µM (inactive) | > 100 µM (inactive) | > 100 µM (inactive) |  | > 100 µM (inactive) |  | > 100 µM (inactive) | > 100 µM (inactive) | > 100 µM (inactive)
CC(=O)n1cc(CC(C)O)c(=O)[nH]c1=O (configuration not stated) | > 100 µM (inactive) | > 100 µM (inactive) | > 100 µM (inactive) | > 100 µM (inactive) | > 100 µM (inactive) | > 100 µM (inactive) | > 100 µM (inactive) | > 100 µM (inactive) | > 100 µM (inactive)
CC(C)(C)C(=O)/C=C/c1ccc(Oc2ccccc2)cc1 |  |  | 17.2 µM (inactive) | 13.2 µM (inactive) | 23.5 µM (inactive) |  | 15.2 µM (inactive) | 19.3 µM (inactive) | 25.5 µM (inactive)
C=C1C(=O)OC2C1CCC(C)C1C=CC(=O)C12C (configuration not stated) |  | 4.08 µM (inactive) | 3.61 µM (inactive) | 1.58 µM (inactive) | 3.36 µM (inactive) |  | 3.29 µM (inactive) | 6.65 µM (inactive) | 3.14 µM (inactive)
